Source: patent US6495160B2, “Biphasic multicomponent pharmaceutical dosage forms containing substances able to modify the partitioning of drugs” (Eurand International S.p.A., priority 1997, dated 2002)

Test: Apparent partition coefficient (Pm) between oil and water phases
Type: physicochemical
Details: oily phase Labrafac Hydro, benzyl alcohol 1:1, 24 hours
Experimental: The water volume contained a starting concentration of active principle (C0) which was lower than the solubility of the active principle in each of the two phases. At the end of the experiment, the concentrations of active principle in the water phase (CA) were measured by cromatography (HPLC).

CS(=O)(=O)Nc1ccc([N+](=O)[O-])cc1Oc1ccccc1 [NIME, Nimesulide]
Partition coefficient (Pm) of the Active Principle (NMP 0% in aqueous phase): 1.75
Partition coefficient (Pm) of the Active Principle (NMP 5% in aqueous phase): 36.7
Partition coefficient (Pm) of the Active Principle (NMP 10% in aqueous phase): 63.5
Partition coefficient (Pm) of the Active Principle (NMP 15% in aqueous phase): 98.3
Partition coefficient (Pm) of the Active Principle (NMP 20% in aqueous phase): 29.6
